Drawing on US9085589B2, “Cephem derivative” (SHIONOGI & CO., LTD., priority 2010, dated 2015), this text covers MIC for six compounds.

Structures are written as SMILES. Values after ≈ are worked out from the molar mass of the structure shown.

What all share (assay type): cell-based
In experiment [1] the test system is Staphylococcus aureus Smith. Description: MIC, agar plate incubation (Japan Society for Chemotherapy standard method). The conditions noted are these: S. aureus Smith, MSSA, sensitive disc medium, 1000 cfu/spot, read-out: Minimum Inhibitory Concentration (MIC). How it is done:
(§1) (Test Methods for Compounds (I-1) to (I-9), (I-16), (I-17) and (I-23))
(§2) (Microbe/Strain Species Nos. 1 to 4 and 6 to 8):
(§3) Measurement of Minimum Inhibitory Concentration (MIC: microgram/ml) was conducted according to the standard method of the Japan Society for Chemotherapy, and the amount of bacteria for inoculation was 1000 cfu/spot, and sensitive disc medium was used as the test medium, and conducted using agar plate incubation.

Experiment [2] concerns Pseudomonas aeruginosa SR24. The description is as above. As to conditions: P. aeruginosa SR24, ceftazidime sensitive strain, sensitive disc medium, 1000 cfu/spot, read-out: Minimum Inhibitory Concentration (MIC). How it is done: as §1, §2, §3
Experiment [3] has as its system Klebsiella pneumoniae ATCC 700603. The experiment is described as above. The conditions noted are these: K. pneumoniae ATCC700603, SHV-18, ESBL producing strain, sensitive disc medium, 1000 cfu/spot, read-out: Minimum Inhibitory Concentration (MIC). How it is done:
as §1, §2, §3

Experiment [4] has as its system Streptococcus pneumoniae SR16675. Described as above. The conditions noted are these: S. pneumoniae SR16675, PRSP, sensitive disc medium, 1000 cfu/spot, read-out: Minimum Inhibitory Concentration (MIC). How it is done: as §1, §2, §3
Experiment [5] relates to Streptococcus pneumoniae Type I. Described as above. The conditions noted are these: S. pneumoniae Type I, PSSP, sensitive disc medium, 1000 cfu/spot, read-out: Minimum Inhibitory Concentration (MIC). How it is done: as §1, §2, §3
Experiment [6] deals with Acinetobacter baumannii SR24396. The experiment is described as above. The conditions noted are these: A. baumannii SR24396, sensitive disc medium, 1000 cfu/spot, read-out: Minimum Inhibitory Concentration (MIC). How it is done:
as §1, §2, §3

The test system of experiment [7] is Pseudomonas aeruginosa SR27060. The description is as above. As to conditions: P. aeruginosa SR27060, IMP-1, MBL producing (carbapenem resistant) strain, sensitive disc medium, 1000 cfu/spot, read-out: Minimum Inhibitory Concentration (MIC). How it is done:
as §1, §2, §3

Experiment [8] relates to Stenotrohomonas maltophilia SR21970. Kind of experiment: MIC, agar plate incubation (CLSI), Mueller-Hinton agar. The conditions noted are these: Stenotrophomonas maltophilia, S. maltophilia SR21970, L-1, MBL producing (carbapenem resistant) strain, 10000 cfu/spot, read-out: Minimum Inhibitory Concentration (MIC). How it is done: as §1
(Microbe/Strain Species No. 5):
Measurement of Minimum Inhibitory Concentration (MIC, microgram/ml) was conducted according to the CLSI (Clinical and Laboratory Standards Institute) and the amount of bacteria for inoculation was 10000 cfu/spot, and Mueller-Hinton agar medium was used as the test medium, and conducted using agar plate incubation.

The test system of experiment [9] is Pseudomonas aeruginosa SR24. Kind of experiment: MIC, broth microdilution (CLSI), medium with human Apo-transferrin. The conditions noted are these: P. aeruginosa SR24, ceftazidime sensitive strain, cation adjusted Mueller-Hinton + human Apo-transferrin, 5×10^5 cfu/mL, read-out: Minimum Inhibitory Concentration (MIC). How it is done: (§4) (Test Methods for Compounds (I-10) to (I-15))
(§5) (Microbe/Strain Species Nos. 1 to 5):
(§6) Measurement of Minimum Inhibitory Concentration (MIC, microgram/ml) was conducted according to the CLSI (Clinical and Laboratory Standards Institute) and the amount of bacteria for inoculation was 5×10^5 cfu/mL, and cation adjusted Mueller-Hinton liquid medium added human Apo-tranferrin was used as the test medium, and conducted using broth microdilution method.
(§7) (Test Methods for Compounds (I-18) to (I-22))

For experiment [10], the system named is Klebsiella pneumoniae ATCC 700603. Described as above. The conditions noted are these: K. pneumoniae ATCC700603, SHV-18, ESBL producing strain, cation adjusted Mueller-Hinton + human Apo-transferrin, 5×10^5 cfu/mL, read-out: Minimum Inhibitory Concentration (MIC). How it is done:
as §4, §5, §6, §7

Experiment [11] relates to Stenotrohomonas maltophilia SR21970. The experiment is described as above. The conditions noted are these: Stenotrophomonas maltophilia, S. maltophilia SR21970, L-1, MBL producing (carbapenem resistant) strain, cation adjusted Mueller-Hinton + human Apo-transferrin, 5×10^5 cfu/mL, read-out: Minimum Inhibitory Concentration (MIC). How it is done:
as §4, §5, §6, §7

Experiment [12] relates to Acinetobacter baumannii SR24396. Described as above. The conditions noted are these: A. baumannii SR24396, cation adjusted Mueller-Hinton + human Apo-transferrin, 5×10^5 cfu/mL, read-out: Minimum Inhibitory Concentration (MIC). How it is done: as §4, §5, §6, §7
Experiment [13] relates to Pseudomonas aeruginosa SR27060. Described as above. The conditions noted are these: P. aeruginosa SR27060, IMP-1, MBL producing (carbapenem resistant) strain, cation adjusted Mueller-Hinton + human Apo-transferrin, 5×10^5 cfu/mL, read-out: Minimum Inhibitory Concentration (MIC). How it is done:
as §4, §5, §6, §7

With `CCN1CCN(C(=O)N[C@@H](C(=O)N[C@@H]2C(=O)N3C(C(=O)[O-])=C(C[N+]4(CCNC(=O)c5ccc(O)c(O)c5Cl)CCCC4)CS[C@H]23)c2ccccc2)C(=O)C1=O` [Compound I-1], the MIC turned out to be 4 mg/L (≈ 5.01 µM) in experiment [1]; 0.063 mg/L (≈ 0.0789 µM) in experiment [2]; 1 mg/L (≈ 1.25 µM) in [3]; 8 mg/L (≈ 10 µM) in experiment [4]; 0.5 mg/L (≈ 0.626 µM) in [5]; 0.5 mg/L (≈ 0.626 µM) in experiment [6]. Moreover, the MIC was determined as 0.5 mg/L (≈ 0.626 µM) in [7] and 2 mg/L (≈ 2.51 µM) in experiment [8].

On to `Nc1nc(C(=CCC(=O)[O-])C(=O)N[C@@H]2C(=O)N3C(C(=O)[O-])=C(C[N+]4(CCNC(=O)c5ccc(O)c(O)c5Cl)CCCC4)CS[C@H]23)cs1.[Na+]` [Compound I-8], for which the MIC is 0.25 mg/L in experiment [2]; 0.5 mg/L in [3]; 4 mg/L in [5]; 0.25 mg/L in [6]; 2 mg/L in [7]; 4 mg/L in experiment [8].

Take `CC(C)(O/N=C(\C(=O)N[C@@H]1C(=O)N2C(C(=O)[O-])=C(C[N@+]34CCC[C@H]3CN(C(=O)c3ccc(O)c(O)c3Cl)CC4)CS[C@H]12)c1ccc(O)cc1)C(=O)[O-].[Na+]` [Compound I-15]: the MIC in experiment [9] stood at 0.5 mg/L; in experiment [10], 32 mg/L; in experiment [11], 0.5 mg/L; in experiment [12], 4 mg/L; in experiment [13], 2 mg/L.

In the case of `CC(C)(O/N=C(\C(=O)NC1C(=O)N2C(C(=O)O)=C(C[N+]3(CCNC(=O)c4ccc(O)c(O)c4Cl)CCCC3)CS[C@H]12)c1ccc(O)c(F)c1)C(=O)[O-]` (some centres unmarked) [Compound I-17], the MIC in experiment [2] came out at 0.25 mg/L (≈ 0.327 µM); in experiment [3] it was 4 mg/L (≈ 5.23 µM); in experiment [6], 1 mg/L (≈ 1.31 µM); in experiment [7], 1 mg/L (≈ 1.31 µM); in experiment [8] it was 2 mg/L (≈ 2.62 µM).

In the case of `CCN1CCN(C(=O)N[C@@H](C(=O)N[C@@H]2C(=O)N3C(C(=O)[O-])=C(C[N@+]4(C)[C@@H]5CC[C@H]4C[C@@H](NC(=O)c4ccc(O)c(O)c4Cl)C5)CS[C@H]23)c2ccccc2)C(=O)C1=O` [Compound I-18], the MIC in [9] amounted to 0.125 mg/L; in experiment [10], 2 mg/L; in experiment [11], 4 mg/L; in [12], 0.25 mg/L; in experiment [13], 2 mg/L.

On to `CCN1CCN(C(=O)N[C@@H](C(=O)N[C@@H]2C(=O)N3C(C(=O)[O-])=C(C[N+]45CCC(CNC(=O)c6ccc(O)c(O)c6Cl)(CC4)CC5)CO[C@H]23)c2ccccc2)C(=O)C1=O` [Compound I-23], for which the MIC is 0.5 mg/L (≈ 0.619 µM) in [2]; 16 mg/L (≈ 19.8 µM) in [3]; 0.5 mg/L (≈ 0.619 µM) in experiment [5]; 1 mg/L (≈ 1.24 µM) in experiment [6]; 4 mg/L (≈ 4.95 µM) in experiment [7]; over 64 mg/L in experiment [8].
